Laboratory results published in ChEMBL document CHEMBL4476867, “Hydroxy formamide derivatives and their use” (2016).

What was measured:
[1] = Reduction in PICP levels in human cardiac fibroblasts incubated for 24 to 48 hrs by ELISA; format: functional
Procedure, shortened: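 Human cardiac fibroblasts at passage 6 or below were plated in 96-well plates at 10,000 to 15,000 cells per well. On the following day, cells were treated for 24 to 48 hr at 37° C in ficoll crowding EMEM containing 100 μM ascorbic acid, with DMSO kept under 0.3%. A Quidel ELISA measured procollagen I C-terminal propeptide released into the medium, and IC50 values were derived in GraphPad Prism by fitting levels, expressed relative to untreated controls, to a log(inhibitor)-response equation.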

Tolloid-like protein 1 = Tolloid-like protein 1 (Homo sapiens, UniProt O43897, I156V/N221S/V284A); assay: Inhibition of recombinant human TLL1 I156V/N221S/V284A mutant expressed in CHOE1A cells pre-incubated for 10 mins before promyostatin peptide substrate addition and measured after 60 mins by FRET based assay; format: cell-based
Tolloid-like protein 2 = target: T1, Tolloid-like protein 2 (Homo sapiens, UniProt Q9Y6L7); assay: Inhibition of C-terminal Avi-6x-His epitope tagged and N-terminal human RAGE signal sequence tagged recombinant human TLL2 (26 to 1015 amino acids) expressed in CHOE1A cells incubated for 60 mins with promyostatin peptide substrate by FRET based assay; format: cell-based
T1 sequence (Q9Y6L7 whole entry): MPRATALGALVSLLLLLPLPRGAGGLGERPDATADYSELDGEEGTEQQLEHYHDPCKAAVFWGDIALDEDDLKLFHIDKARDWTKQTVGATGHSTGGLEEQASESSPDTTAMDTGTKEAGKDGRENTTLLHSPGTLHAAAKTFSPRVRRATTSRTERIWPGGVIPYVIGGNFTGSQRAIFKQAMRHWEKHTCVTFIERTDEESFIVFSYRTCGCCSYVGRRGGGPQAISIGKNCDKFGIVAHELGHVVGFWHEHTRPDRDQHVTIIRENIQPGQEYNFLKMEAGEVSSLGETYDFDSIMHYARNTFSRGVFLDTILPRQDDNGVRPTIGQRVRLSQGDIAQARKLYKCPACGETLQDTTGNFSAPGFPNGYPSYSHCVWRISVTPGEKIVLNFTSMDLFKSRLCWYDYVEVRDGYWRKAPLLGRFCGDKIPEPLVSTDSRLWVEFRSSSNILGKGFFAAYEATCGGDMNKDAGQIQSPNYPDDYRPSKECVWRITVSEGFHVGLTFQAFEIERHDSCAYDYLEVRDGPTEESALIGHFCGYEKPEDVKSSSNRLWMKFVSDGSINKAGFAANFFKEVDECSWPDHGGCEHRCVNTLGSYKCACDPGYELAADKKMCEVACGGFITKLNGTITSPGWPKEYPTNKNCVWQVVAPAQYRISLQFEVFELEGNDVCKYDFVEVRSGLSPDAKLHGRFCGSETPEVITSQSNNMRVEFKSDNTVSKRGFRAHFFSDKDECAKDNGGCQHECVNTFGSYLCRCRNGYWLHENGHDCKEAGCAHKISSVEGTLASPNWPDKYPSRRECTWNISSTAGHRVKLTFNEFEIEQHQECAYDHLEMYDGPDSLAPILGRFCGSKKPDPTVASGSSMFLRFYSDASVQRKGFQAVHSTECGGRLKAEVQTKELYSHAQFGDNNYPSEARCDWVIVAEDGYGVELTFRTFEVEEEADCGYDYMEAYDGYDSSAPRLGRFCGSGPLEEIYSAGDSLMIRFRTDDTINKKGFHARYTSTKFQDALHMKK

[2] = target: T2, Bone morphogenetic protein 1 (Homo sapiens, UniProt P13497); assay: Inhibition of C-terminal FLAG-6x-His epitope tagged and N-terminal human RAGE signal sequence tagged human BMP1 (23 to 721 amino acids) expressed in CHO-E1 cells pre-incubated for 10 mins before promyostatin peptide substrate addition and measured after 30 mins using 50 nM BMP1 by FRET based assay; format: cell-based
T2 sequence (P13497 whole entry): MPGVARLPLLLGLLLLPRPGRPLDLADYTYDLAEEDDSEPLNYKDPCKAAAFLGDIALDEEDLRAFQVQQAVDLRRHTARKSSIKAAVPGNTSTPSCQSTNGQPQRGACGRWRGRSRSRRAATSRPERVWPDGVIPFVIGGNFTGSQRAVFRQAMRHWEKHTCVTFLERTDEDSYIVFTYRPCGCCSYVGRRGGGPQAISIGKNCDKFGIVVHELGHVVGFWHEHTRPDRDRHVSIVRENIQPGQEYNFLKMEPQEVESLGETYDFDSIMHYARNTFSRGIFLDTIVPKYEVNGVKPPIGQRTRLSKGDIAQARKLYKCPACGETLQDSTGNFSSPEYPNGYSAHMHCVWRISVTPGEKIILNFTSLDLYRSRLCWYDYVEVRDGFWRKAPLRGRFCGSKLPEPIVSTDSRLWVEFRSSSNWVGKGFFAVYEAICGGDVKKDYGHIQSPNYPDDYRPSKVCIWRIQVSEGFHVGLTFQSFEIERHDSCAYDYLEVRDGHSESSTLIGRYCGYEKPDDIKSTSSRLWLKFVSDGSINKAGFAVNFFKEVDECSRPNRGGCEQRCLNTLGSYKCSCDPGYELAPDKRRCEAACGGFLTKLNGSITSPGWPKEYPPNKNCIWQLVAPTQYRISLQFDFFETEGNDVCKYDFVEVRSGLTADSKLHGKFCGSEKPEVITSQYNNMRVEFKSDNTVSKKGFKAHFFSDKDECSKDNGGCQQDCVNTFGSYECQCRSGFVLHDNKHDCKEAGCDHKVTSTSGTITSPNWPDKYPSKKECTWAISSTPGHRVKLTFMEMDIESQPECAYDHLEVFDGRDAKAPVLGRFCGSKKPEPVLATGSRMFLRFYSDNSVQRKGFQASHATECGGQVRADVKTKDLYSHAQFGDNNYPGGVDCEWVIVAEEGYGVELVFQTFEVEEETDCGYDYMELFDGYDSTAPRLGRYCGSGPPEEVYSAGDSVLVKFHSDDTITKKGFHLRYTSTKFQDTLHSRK

[3] = target: T2, Bone morphogenetic protein 1; assay: Inhibition of C-terminal FLAG-6x-His epitope tagged and N-terminal human RAGE signal sequence tagged human BMP1 (23 to 721 amino acids) expressed in CHO-E1 cells pre-incubated for 10 mins before promyostatin peptide substrate addition and measured after 60 mins using 0.5 nM BMP1 by FRET based assay; format: cell-based

Sequence of Tolloid-like protein 1 (O43897 148-1013 I156V/N221S/V284A limits assumed): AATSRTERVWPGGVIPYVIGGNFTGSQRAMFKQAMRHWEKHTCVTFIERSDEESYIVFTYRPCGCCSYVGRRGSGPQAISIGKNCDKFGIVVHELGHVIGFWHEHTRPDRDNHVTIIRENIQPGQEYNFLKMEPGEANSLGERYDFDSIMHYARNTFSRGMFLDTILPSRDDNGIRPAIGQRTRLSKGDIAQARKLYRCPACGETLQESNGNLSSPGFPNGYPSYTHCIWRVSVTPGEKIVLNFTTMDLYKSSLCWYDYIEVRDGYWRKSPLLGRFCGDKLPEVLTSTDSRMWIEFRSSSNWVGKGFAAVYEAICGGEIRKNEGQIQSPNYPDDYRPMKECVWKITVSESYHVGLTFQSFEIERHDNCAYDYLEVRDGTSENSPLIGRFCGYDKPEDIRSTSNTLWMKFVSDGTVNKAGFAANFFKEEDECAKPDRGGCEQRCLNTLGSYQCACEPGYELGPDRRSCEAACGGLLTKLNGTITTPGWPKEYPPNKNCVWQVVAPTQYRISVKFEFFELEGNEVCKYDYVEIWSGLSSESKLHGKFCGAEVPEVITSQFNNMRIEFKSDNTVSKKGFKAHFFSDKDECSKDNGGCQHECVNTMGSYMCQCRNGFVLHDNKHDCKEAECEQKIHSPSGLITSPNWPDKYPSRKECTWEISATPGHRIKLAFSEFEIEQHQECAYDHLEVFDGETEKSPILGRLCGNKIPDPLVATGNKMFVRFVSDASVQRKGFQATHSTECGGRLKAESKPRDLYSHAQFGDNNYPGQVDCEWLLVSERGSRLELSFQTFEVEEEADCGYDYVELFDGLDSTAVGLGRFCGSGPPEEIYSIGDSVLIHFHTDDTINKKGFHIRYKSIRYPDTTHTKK

## CCCCC[C@@H](C(=O)NCNC(=O)c1ccc(-c2cc(OCC)cc(C(=O)NCC[N+](C)(C)C)c2)o1)[C@@H](CC)N(O)C=O
[1]
  IC50: < 3980 nM
Tolloid-like protein 1
  IC50: < 398 nM
Tolloid-like protein 2
  IC50: < 794 nM
[2]
  IC50: < 200 nM
[3]
  IC50: < 126 nM

## CCCCC[C@@H](C(=O)NCNC(=O)c1ccc(-c2cccc(C(C)(C)C(=O)O)c2)o1)[C@@H](CC)N(O)C=O
[1]
  IC50: < 3980 nM
Tolloid-like protein 1
  IC50: < 398 nM
Tolloid-like protein 2
  IC50: < 794 nM
[2]
  IC50: < 200 nM
[3]
  IC50: < 126 nM

## CCCCC[C@@H](C(=O)NCNC(=O)c1ccc(-c2cc(OCC)cc(C(F)(F)C(=O)O)c2)o1)[C@@H](CC)N(O)C=O
[1]
  IC50: < 3980 nM
Tolloid-like protein 1
  IC50: < 398 nM
Tolloid-like protein 2
  IC50: < 794 nM
[2]
  IC50: < 200 nM
[3]
  IC50: < 126 nM

## CCCCC[C@@H](C(=O)NCNC(=O)c1ccc(-c2cc(OCC)cc(P(=O)(OC)OC)c2)o1)[C@@H](CC)N(O)C=O
[1]
  IC50: < 3980 nM
Tolloid-like protein 1
  IC50: < 398 nM
Tolloid-like protein 2
  IC50: < 794 nM
[2]
  IC50: < 200 nM
[3]
  IC50: < 126 nM

## CCCCC[C@@H](C(=O)NCNC(=O)c1ccc(-c2ccc(F)c(CC(=O)O)c2)o1)[C@@H](CC)N(O)C=O
[1]
  IC50: < 3980 nM
Tolloid-like protein 1
  IC50: < 398 nM
Tolloid-like protein 2
  IC50: < 794 nM
[2]
  IC50: < 200 nM
[3]
  IC50: < 126 nM

## CCCCC[C@H](CN(O)C=O)C(=O)NCNC(=O)c1ccc(-c2cccc(CC(=O)O)c2)o1
[1]
  IC50: < 3980 nM
Tolloid-like protein 1
  IC50: < 398 nM
Tolloid-like protein 2
  IC50: < 794 nM
[2]
  IC50: < 200 nM
[3]
  IC50: < 126 nM

## CCCCC[C@H](CN(O)C=O)C(=O)NCNC(=O)c1ccc(-c2ccc(F)c(C(=O)OC)c2)o1
[1]
  IC50: < 3980 nM
Tolloid-like protein 1
  IC50: < 398 nM
Tolloid-like protein 2
  IC50: < 794 nM
[2]
  IC50: < 200 nM
[3]
  IC50: < 126 nM

## CCCCC[C@H](CN(O)C=O)C(=O)NCNC(=O)c1ccc(-c2ccc(F)c(C(=O)O)c2F)o1
[1]
  IC50: < 3980 nM
Tolloid-like protein 1
  IC50: < 398 nM
Tolloid-like protein 2
  IC50: < 794 nM
[2]
  IC50: < 200 nM
[3]
  IC50: < 126 nM

## CCCCC[C@H](CN(O)C=O)C(=O)NCNC(=O)c1ccc(-c2cc(OC)ccc2OC)o1
[1]
  IC50: < 3980 nM
Tolloid-like protein 1
  IC50: < 398 nM
Tolloid-like protein 2
  IC50: < 794 nM
[2]
  IC50: < 200 nM
[3]
  IC50: < 126 nM

## CCCCC[C@H](CN(O)C=O)C(=O)NCNC(=O)c1ccc(-c2cc(OC)cc(OC)c2)o1
[1]
  IC50: < 3980 nM
Tolloid-like protein 1
  IC50: < 398 nM
Tolloid-like protein 2
  IC50: < 794 nM
[2]
  IC50: < 200 nM
[3]
  IC50: < 126 nM

## CCCCC[C@H](CN(O)C=O)C(=O)NCNC(=O)c1ccc(-c2cccc(C(=O)O)c2F)o1
[1]
  IC50: < 3980 nM
Tolloid-like protein 1
  IC50: < 398 nM
Tolloid-like protein 2
  IC50: < 794 nM
[2]
  IC50: < 200 nM
[3]
  IC50: < 126 nM

## CCCCC[C@@H](C(=O)NCNC(=O)c1ccc(-c2ccc(C(=O)O)cc2)o1)[C@@H](CC)N(O)C=O
[1]
  IC50: < 3980 nM
Tolloid-like protein 1
  IC50: < 398 nM
Tolloid-like protein 2
  IC50: < 794 nM
[2]
  IC50: < 200 nM
[3]
  IC50: < 126 nM

## CCCCC[C@H](CN(O)C=O)C(=O)NCNC(=O)c1ccc(-c2ccc(O)c(C(=O)O)c2)o1
[1]
  IC50: < 3980 nM
Tolloid-like protein 1
  IC50: < 398 nM
Tolloid-like protein 2
  IC50: < 794 nM
[2]
  IC50: < 200 nM
[3]
  IC50: < 126 nM

## CCCCC[C@@H](C(=O)NCNC(=O)c1ccc(-c2cc(O)cc(OCC)c2)o1)[C@@H](CC)N(O)C=O
[1]
  IC50: < 3980 nM
Tolloid-like protein 1
  IC50: < 398 nM
Tolloid-like protein 2
  IC50: < 794 nM
[2]
  IC50: < 200 nM
[3]
  IC50: < 126 nM

## CCCCC[C@H](CN(O)C=O)C(=O)NCNC(=O)c1ccc(-c2cccc(C(=O)O)c2C)o1
[1]
  IC50: < 3980 nM
Tolloid-like protein 1
  IC50: < 398 nM
Tolloid-like protein 2
  IC50: < 794 nM
[2]
  IC50: < 200 nM
[3]
  IC50: < 126 nM

## CCCCC[C@H](CN(O)C=O)C(=O)NCNC(=O)c1ccc(-c2cccc(C(=O)O)c2OC)o1
[1]
  IC50: < 3980 nM
Tolloid-like protein 1
  IC50: < 398 nM
Tolloid-like protein 2
  IC50: < 794 nM
[2]
  IC50: < 200 nM
[3]
  IC50: < 126 nM

## CCCCC[C@H](CN(O)C=O)C(=O)NCNC(=O)c1ccc(-c2cccc(C(C)C(=O)O)c2)o1 (stereo not given in full)
[1]
  IC50: < 3980 nM
Tolloid-like protein 1
  IC50: < 398 nM
Tolloid-like protein 2
  IC50: < 794 nM
[2]
  IC50: < 200 nM
[3]
  IC50: < 126 nM

## CCCCC[C@H](CN(O)C=O)C(=O)NCNC(=O)c1ccc(-c2ccc(N)c(C(=O)O)c2)o1
[1]
  IC50: < 3980 nM
Tolloid-like protein 1
  IC50: < 398 nM
Tolloid-like protein 2
  IC50: < 794 nM
[2]
  IC50: < 200 nM
[3]
  IC50: < 126 nM
